The values below come from the METLIN SMRT retention time set (Domingo-Almenara et al. 2019).

SMILES strings stand for the structures.

The data set in a line: gradient 5% acetonitrile 3 min, to 50% in 2 min, to 85% in 15 min, held 3 min, 100 µL/min. The settings on record: column: Zorbax Extend-C18 2.1 x 50 mm; eluents: water / acetonitrile, 0.1% formic acid. The procedure, abridged:
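Retention time was recorded from adduct peaks, which were picked computationally and each inspected manually. Pure standards ran in mixtures of ~100 molecules on HPLC coupled to a quadrupole time-of-flight mass spectrometer, in positive and negative ionization mode, through a Zorbax Extend-C18 column (2.1 × 50 mm, 1.8 μm) at 100 μL/min. Eluents were water and acetonitrile, each with 0.1% formic acid.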
For the compound `Cc1ccccc1NS(=O)(=O)c1cc2n(c1)CCCNC2=O`, the RP-LC retention time was determined as 646 s.

With `COc1ccc2nc(C(=O)NCc3ccccc3Br)cn2n1`, the RP-LC retention time was found to be 891 s.

`O=C(COc1ccc(Cl)cc1Cl)Nc1nc(-c2ccccc2)cs1` registered an RP-LC retention time of 1190 s.

`COc1ccc(Cl)cc1S(=O)(=O)N1CCC(OC2CCN(C)CC2)CC1`: the RP-LC retention time stood at 791 s.

In turn, `CC(=O)Nc1cc(C(=O)NCCC2=CCCCC2)c2ccc(C)nc2c1` had an RP-LC retention time of 652 s.

On to `Cc1c(Cl)cccc1NC(=O)C1CCCN(c2nnc(C)c3c(C)n(-c4ccccc4)nc23)C1` (stereo not given), for which the RP-LC retention time was 784 s.

In turn, `Cc1ccc(CNC(=O)C2CCN(c3cncnc3N3CCCCC3)CC2)o1` came in with an RP-LC retention time of 643 s.

Compound `CC(C)NC(=O)N1CCCC(c2cccc(C(=O)NCc3ccc(OC(C)C)cc3)c2)C1` (stereo not given) yielded an RP-LC retention time of 939 s.

As for `O=C(Cc1cccs1)Nc1ccc(SCc2nnc(-c3ccccc3)o2)cc1`, the RP-LC retention time is 940 s.

`Cc1cc(N2C=C(C(=O)N3CCOCC3)S(=O)(=O)c3ccc(F)cc32)ccc1F`: the RP-LC retention time was 814 s.

For the compound `Cc1cc(C)n2nc(SCC(=O)Nc3ccccc3C(F)(F)F)nc2n1`, the RP-LC retention time stood at 753 s.

For the compound `CCN1c2cc(Cl)ccc2C(=O)NC12CCN(C(=O)NCc1ccccc1)CC2`, the RP-LC retention time was 757 s.

Regarding `COc1ccccc1N1CCN(CC(O)c2ccc3c(c2)OCO3)CC1` (stereo not given), the RP-LC retention time worked out at 631 s.

With `Cc1ccc2[nH]cc(CCN3CC(C(=O)Nc4ccc(C)c(C)c4)CC3=O)c2c1` (stereo not given), the RP-LC retention time came out at 910 s.

`O=C(Cn1c(=O)c(CCC(=O)NC2CCCC2)nc2ccccc21)NCc1ccccc1Cl` came in with an RP-LC retention time of 842 s.

Regarding `Cc1nc(-c2csc(S(=O)(=O)N3CCCC(C(=O)NCCc4sccc4C)C3)c2)no1` (stereo not given), the RP-LC retention time turned out to be 932 s.

With `CCCN(CC1CCOC1)S(=O)(=O)c1ccccc1CC` (stereo not given), the RP-LC retention time turned out to be 992 s.

Take `COc1ccc(Cl)cc1Nc1c(-c2nc(C)no2)cnc2nc(C)ccc12`: the RP-LC retention time stood at 794 s.

`CN(CC1CCOCC1)C(=O)Nc1ccc(C(F)(F)F)cc1` returned an RP-LC retention time of 812 s.

In the case of `COc1cc(-c2nc3ncccn3c2Nc2ccc3c(c2)OCO3)ccc1O`, the RP-LC retention time came out at 621 s.

`O=C(C1=CN(c2cccc(F)c2)c2cc(F)ccc2S1(=O)=O)N1CCCCC1` registered an RP-LC retention time of 872 s.

In the case of `Cc1nn(C)c(C)c1CCC(=O)NCCn1c(C)cnc1C1CCC1`, the RP-LC retention time came out at 547 s.

Turning to `COC(=O)c1ncn2c1C(=O)N(Cc1ccccc1)C(C)(C(=O)NC1CCCCC1)C2` (stereo not given), the RP-LC retention time was determined as 750 s.

`CCCn1ccc2sc(C)c(C(=O)NCc3ccc(OC)c(OC)c3)c2c1=O` had an RP-LC retention time of 780 s.

In turn, `CCN1CCN(c2cc(C)c3cc(NC(=O)COc4ccc(OC)cc4)ccc3n2)CC1` had an RP-LC retention time of 597 s.

In turn, `Cc1cccc(N2C(=O)CN(CC(C)C)[C@H]3CS(=O)(=O)C[C@H]32)c1` displayed an RP-LC retention time of 836 s.

On to `O=c1c2scc(-c3cccc(F)c3)c2ncn1Cc1cccc(Br)c1`, for which the RP-LC retention time was found to be 1180 s.

Turning to `Cc1cccc(CN2CCCn3nc(C(=O)NC(C)Cc4ccco4)cc3C2=O)c1` (stereo not given), the RP-LC retention time stood at 919 s.

In turn, `Cn1c(SCC(=O)c2ccc(F)cc2)nnc1-c1ccncc1` returned an RP-LC retention time of 620 s.

As to `CCOc1cc([C@@H](CS(C)(=O)=O)N2C(=O)c3cccc(NC(C)=O)c3C2=O)ccc1OC`, the RP-LC retention time was determined as 859 s.

`NC(=O)C1CCN(C(=O)NC2CCCCC2)CC1` registered an RP-LC retention time of 584 s.

For `CCOc1ccc(OCC)c(NS(=O)(=O)c2cc(-c3cc(CC)no3)cs2)c1`, the RP-LC retention time was 1090 s.

As for `Cc1c(Cl)ccc2c(=O)c3c([nH]c12)CCN(CC(=O)Nc1ccc2c(c1)OCCO2)C3`, the RP-LC retention time amounted to 646 s.

Compound `CC(Cc1ccco1)NC(=O)c1cc2n(n1)CCCN(Cc1ccccc1)C2=O` (stereo not given) displayed an RP-LC retention time of 828 s.

As to `CC(C)n1cnc(S(=O)(=O)N2CCC(C(=O)N3CCc4ccccc43)CC2)c1`, the RP-LC retention time was found to be 769 s.

`Cc1nc([C@@H]2CN(C(=O)c3cscn3)C[C@H]2C(N)=O)n[nH]1`: the RP-LC retention time turned out to be 533 s.

Consider `Cc1ccc(Cl)cc1N1CCN(C(=O)CN2C(=O)C3C4C=CC(C4)C3C2=O)CC1` (stereo not given), for which the RP-LC retention time is 977 s.

Turning to `O=C(c1ccco1)N1CCC(F)(C(=O)N2CCCC2)CC1`, the RP-LC retention time is 653 s.

Compound `Cc1ccc(OCC(=O)Nc2nnc(C3CC(=O)N(c4ccccc4)C3)o2)cc1` (stereo not given) returned an RP-LC retention time of 765 s.

On to `Cc1cc(C)c(NC(=O)C2CCN(c3c(C(=O)N4CCCCC4)cnc4snc(C)c34)CC2)c(C)c1`, for which the RP-LC retention time worked out at 927 s.

Consider `Cn1nccc1C(=O)N1CCN(c2nc3c(S(C)(=O)=O)cccc3s2)CC1`, for which the RP-LC retention time was found to be 656 s.

On to `CCOC(=O)c1cnc2nc(C)ccc2c1Nc1cccc(Cl)c1`, for which the RP-LC retention time was determined as 752 s.

Turning to `CC(C)n1cnc(S(=O)(=O)N2CCCC(C(=O)N3CCN(c4ccccn4)CC3)C2)c1` (stereo not given), the RP-LC retention time was found to be 581 s.

With `COCCn1c(C)cc(O)c(C(c2ccc(SC)cc2)N2CCC(C)CC2)c1=O` (stereo not given), the RP-LC retention time amounted to 1050 s.

Turning to `O=[N+]([O-])c1ccccc1S(=O)(=O)c1ccccc1[N+](=O)[O-]`, the RP-LC retention time came to 840 s.

In turn, `CCc1nncn1C1CCN(S(=O)(=O)c2ccccc2C)CC1` registered an RP-LC retention time of 686 s.

With `O=C(c1cccc(Br)c1)N1CCN(c2cc(-c3ccccc3)[nH]n2)CC1`, the RP-LC retention time was 852 s.

`COc1ncc(C(=O)Nc2cccc(Cl)c2)c(C)n1` showed an RP-LC retention time of 812 s.

Take `O=C(Nc1ccc(-c2cn3cccnc3n2)cc1)C1CCCC1`: the RP-LC retention time was found to be 648 s.

In the case of `CCS(=O)(=O)N1CC(=O)N(c2cc(C)cc(C)c2)C(C)(C(=O)NCc2ccccc2)C1` (stereo not given), the RP-LC retention time came out at 868 s.

In turn, `O=C(NC1CC1)c1ccc(OCC2CCN(C(=O)Cc3ccc(Cl)cc3)CC2)cc1` gave an RP-LC retention time of 868 s.

For `O=C(O)C1CCN(S(=O)(=O)c2ccccc2[N+](=O)[O-])CC1`, the RP-LC retention time is 701 s.

For the compound `O=C(NC1CC1)[C@@H]1C[C@H](Oc2ccccc2)CN1C(=O)c1ccsc1`, the RP-LC retention time was 733 s.

`CCn1cc(-c2nc(CC(=O)NC3CCCCCC3)cs2)c2cccnc21` showed an RP-LC retention time of 1050 s.

As to `CC(C)(C)n1cc(C(=O)c2ccccc2)cc1-c1ccccc1`, the RP-LC retention time was found to be 1350 s.

In turn, `Cc1ccn2cc(-c3ccc(NC(=O)c4ccc(Cl)cc4)cc3)nc2n1` gave an RP-LC retention time of 676 s.

In turn, `CC(C)Cn1cc(S(=O)(=O)Nc2cccc(C#N)c2)c2cccnc21` yielded an RP-LC retention time of 916 s.

`CS(=O)(=O)N1CCC(C(=O)Nc2nnc(SCc3ccccn3)s2)CC1`: the RP-LC retention time came to 554 s.

The compound `O=C(Cn1nc2c(N3CCOCC3)nccn2c1=O)Nc1ccc(Br)cc1F` returned an RP-LC retention time of 779 s.

The compound `O=C(CCC1CCN(S(=O)(=O)c2ccccc2)CC1)NCc1ccc(F)cc1` returned an RP-LC retention time of 882 s.

`CCN1C(=O)c2cccnc2Sc2cc(NC(=O)c3ccc(C(F)(F)F)cc3)ccc21` showed an RP-LC retention time of 950 s.

Turning to `CCCn1cc(CCNS(=O)(=O)c2cccc(Cl)c2)c2cccnc21`, the RP-LC retention time came out at 804 s.

In turn, `O=C(NC1CCCC1)C1CCCN(c2nc3ccsc3c(=O)n2Cc2ccc(F)cc2)C1` (stereo not given) registered an RP-LC retention time of 913 s.

In turn, `CC(C)c1ccc(NC(=O)C(=O)NCC2(CO)CC2)cc1` showed an RP-LC retention time of 797 s.

For `Cc1ccccc1C(=O)N1CCC2(CC1)NCc1ccccc1-n1ccnc12`, the RP-LC retention time is 609 s.

For the compound `CCOC(=O)C1=CN(Cc2ccccc2)S(=O)(=O)N=C1C`, the RP-LC retention time was 970 s.

As for `COc1ccccc1CNC(=O)c1cc(C)nn1-c1ccccc1`, the RP-LC retention time came out at 809 s.

The compound `CCC(=O)N1CCc2cc(N3CC(C(=O)NC(C)c4ccccn4)CC3=O)ccc21` (stereo not given) returned an RP-LC retention time of 585 s.

`COc1ccc(F)cc1S(=O)(=O)N1CCN(c2c(C)nn(-c3ccccc3)c2C)CC1` displayed an RP-LC retention time of 965 s.

Regarding `COc1ccc(C2(C(=O)N3CCC4(CC3)N(C)C(=O)CS4=O)CC2)cc1` (stereo not given), the RP-LC retention time stood at 636 s.

In turn, `COC(=O)c1ccc(NC(=O)N(C)Cc2cc(=O)[nH]c3ccccc23)cc1` showed an RP-LC retention time of 694 s.

`O=C(CC1c2ncccc2C(=O)N1Cc1ccc(F)cc1)NCc1cc(F)ccc1F` (stereo not given) registered an RP-LC retention time of 735 s.

As to `Cc1nn(-c2ccccc2)c(-n2cccc2)c1CNC(=O)NCc1ccc(F)cc1`, the RP-LC retention time was determined as 909 s.

The compound `O=C(CNS(=O)(=O)Cc1ccccc1)N1CCOC(c2ccccc2)C1` (stereo not given) displayed an RP-LC retention time of 784 s.

With `Cc1noc(C2CCCCN2CC(=O)Nc2nccs2)n1` (stereo not given), the RP-LC retention time turned out to be 675 s.

Take `COC(=O)c1cc(OCC(=O)Nc2ccc(OC)c(Cl)c2)c2cc(OC)ccc2n1`: the RP-LC retention time is 867 s.

As to `CCOC(=O)C1CCCN(S(=O)(=O)c2cc(-c3nnc(-c4ccccc4)o3)ccc2OC)C1` (stereo not given), the RP-LC retention time was determined as 1020 s.

In turn, `CCn1nc(C)cc1C(=O)Nc1nc2c(s1)CC(C)CC2` (stereo not given) displayed an RP-LC retention time of 935 s.

With `CCn1cc(-c2nc(CC(=O)NCc3ccccc3F)cs2)c2cccnc21`, the RP-LC retention time amounted to 843 s.

In turn, `O=C(NCc1ccc2c(c1)OCO2)c1cnn2c3c(cnc12)CCCCCC3` displayed an RP-LC retention time of 1000 s.
